PubChem BioAssay AID1259407 (Chemical Carcinogenesis Research Information System (CCRIS), 2018)
Activity calls are given as the source filed them. No rule for the calls is given here.

Test system: CCRIS mutagenicity, Ames/micronucleus/aberration tests
Test: CCRIS mutagenicity studies
Conditions: Test System: AMES SALMONELLA TYPHIMURIUM
[1] = Strain/Indicator: TA98, Metabolic Activation: NONE, Method: STANDARD PLATE
[2] = Strain/Indicator: TA98, Metabolic Activation: RAT, LIVER, S-9, AROCLOR 1254, Method: STANDARD PLATE
[3] = Strain/Indicator: TA100, Metabolic Activation: RAT, LIVER, S-9, AROCLOR 1254, Method: STANDARD PLATE
[4] = Strain/Indicator: TA100, Metabolic Activation: NONE, Method: PREINCUBATION
[5] = Strain/Indicator: TA98, Metabolic Activation: HAMSTER, LIVER, S-9, AROCLOR 1254 (10%), Method: PREINCUBATION
[6] = Strain/Indicator: TA98, Metabolic Activation: NONE, Method: PREINCUBATION
[7] = Strain/Indicator: TA98, Metabolic Activation: RAT, LIVER, S-9, AROCLOR 1254 (10%), Method: PREINCUBATION
[8] = Strain/Indicator: TA100, Metabolic Activation: HAMSTER, LIVER, S-9, AROCLOR 1254 (10%), Method: PREINCUBATION
[9] = Strain/Indicator: TA100, Metabolic Activation: RAT, LIVER, S-9, AROCLOR 1254 (10%), Method: PREINCUBATION
[10] = Strain/Indicator: TA1535, Metabolic Activation: HAMSTER, LIVER, S-9, AROCLOR 1254 (10%), Method: PREINCUBATION
[11] = Strain/Indicator: TA1535, Metabolic Activation: NONE, Method: PREINCUBATION
[12] = Strain/Indicator: TA1535, Metabolic Activation: RAT, LIVER, S-9, AROCLOR 1254 (10%), Method: PREINCUBATION
[13] = Strain/Indicator: TA1537, Metabolic Activation: NONE, Method: PREINCUBATION

## Cc1cnc2cc(CO)c3c(nc(N)n3C)c2n1
Strain/Indicator: TA98, Metabolic Activation: S-9
  mutagenic call: active; positive
Strain/Indicator: TA98, Metabolic Activation: S-9, Method: PREINCUBATION
  mutagenic call: active; positive
Strain/Indicator: TA100, Metabolic Activation: S-9, Method: PREINCUBATION
  mutagenic call: active; positive
Strain/Indicator: YG1024, Metabolic Activation: S-9
  mutagenic call: active; positive
Strain/Indicator: YG1024, Metabolic Activation: S-9, Method: PREINCUBATION
  mutagenic call: active; positive

## c1ccc2cc3c(ccc4ccncc43)cc2c1
[1]
  mutagenic call: inactive; negative
[2]
  mutagenic call: active; positive
[3]
  mutagenic call: active; positive

## CC/C=C\CC/C=C/C=O
[4]
  mutagenic call: inactive; negative
Strain/Indicator: TA100, Metabolic Activation: NONE, Method: PREINCUBATION (THREEFOLD CELL DENSITY)
  mutagenic call: inactive; negative
Strain/Indicator: TA100, Metabolic Activation: RAT, LIVER, S-9, AROCLOR 1254, Method: PREINCUBATION (THREEFOLD CELL DENSITY)
  mutagenic call: inactive; negative

## [CH3][Hg+]
Strain/Indicator: TA97, Metabolic Activation: HAMSTER, LIVER, S-9, AROCLOR 1254 (10%), Method: PREINCUBATION
  mutagenic call: inactive; negative
Strain/Indicator: TA97, Metabolic Activation: HAMSTER, LIVER, S-9, AROCLOR 1254 (30%), Method: PREINCUBATION
  mutagenic call: inactive; negative
Strain/Indicator: TA97, Metabolic Activation: NONE, Method: PREINCUBATION
  mutagenic call: inactive; negative
Strain/Indicator: TA97, Metabolic Activation: RAT, LIVER, S-9, AROCLOR 1254 (10%), Method: PREINCUBATION
  mutagenic call: inactive; negative
Strain/Indicator: TA97, Metabolic Activation: RAT, LIVER, S-9, AROCLOR 1254 (30%), Method: PREINCUBATION
  mutagenic call: inactive; negative
[5]
  mutagenic call: inactive; negative
Strain/Indicator: TA98, Metabolic Activation: HAMSTER, LIVER, S-9, AROCLOR 1254 (30%), Method: PREINCUBATION
  mutagenic call: inactive; negative
[6]
  mutagenic call: inactive; negative
[7]
  mutagenic call: inactive; negative
Strain/Indicator: TA98, Metabolic Activation: RAT, LIVER, S-9, AROCLOR 1254 (30%), Method: PREINCUBATION
  mutagenic call: inactive; negative
[8]
  mutagenic call: inactive; negative
Strain/Indicator: TA100, Metabolic Activation: HAMSTER, LIVER, S-9, AROCLOR 1254 (30%), Method: PREINCUBATION
  mutagenic call: inactive; negative
[4]
  mutagenic call: inactive; negative
[9]
  mutagenic call: inactive; negative
Strain/Indicator: TA100, Metabolic Activation: RAT, LIVER, S-9, AROCLOR 1254 (30%), Method: PREINCUBATION
  mutagenic call: inactive; negative
[10]
  mutagenic call: inactive; negative
Strain/Indicator: TA1535, Metabolic Activation: HAMSTER, LIVER, S-9, AROCLOR 1254 (30%), Method: PREINCUBATION
  mutagenic call: inactive; negative
[11]
  mutagenic call: inactive; negative
[12]
  mutagenic call: inactive; negative
Strain/Indicator: TA1535, Metabolic Activation: RAT, LIVER, S-9, AROCLOR 1254 (30%), Method: PREINCUBATION
  mutagenic call: inactive; negative
Strain/Indicator: TA1537, Metabolic Activation: HAMSTER, LIVER, S-9, AROCLOR 1254 (30%), Method: PREINCUBATION
  mutagenic call: inactive; negative
[13]
  mutagenic call: inactive; negative
Strain/Indicator: TA1537, Metabolic Activation: RAT, LIVER, S-9, AROCLOR 1254 (30%), Method: PREINCUBATION
  mutagenic call: inactive; negative

## O=C1c2cccc(O)c2C(=O)c2cccc(O)c21
[1]
  mutagenic call: active; positive
[2]
  mutagenic call: active; positive
[3]
  mutagenic call: inactive; negative
Strain/Indicator: TA1535, Metabolic Activation: NONE, Method: STANDARD PLATE
  mutagenic call: inactive; negative
Strain/Indicator: TA1535, Metabolic Activation: RAT, LIVER, S-9, AROCLOR 1254, Method: STANDARD PLATE
  mutagenic call: inactive; negative
Strain/Indicator: TA1537, Metabolic Activation: NONE, Method: STANDARD PLATE
  mutagenic call: active; positive
Strain/Indicator: TA1537, Metabolic Activation: RAT, LIVER, S-9, AROCLOR 1254, Method: STANDARD PLATE
  mutagenic call: active; positive
Strain/Indicator: TA1537, Metabolic Activation: RAT, LIVER, S-9, Method: PREINCUBATION
  mutagenic call: active; positive
Strain/Indicator: TA1538, Metabolic Activation: NONE, Method: STANDARD PLATE
  mutagenic call: active; positive
Strain/Indicator: TA1978, Metabolic Activation: NONE, Method: STANDARD PLATE
  mutagenic call: inactive; negative
Strain/Indicator: TA1978, Metabolic Activation: RAT, LIVER, S-9, AROCLOR 1254, Method: STANDARD PLATE
  mutagenic call: inactive; negative
Strain/Indicator: TA2637, Metabolic Activation: RAT, LIVER, S-9, 5,6-BENZOFLAVONE AND/OR SODIUM PHENOBARBITAL, Method: PREINCUBATION
  mutagenic call: active; positive
Strain/Indicator: TA2637, Metabolic Activation: RAT, LIVER, S-105, 5,6-BENZOFLAVONE AND/OR SODIUM PHENOBARBITAL, Method: PREINCUBATION
  mutagenic call: inactive; negative

## c1ccc2c3c4c(cc5ccccc5c4cc2c1)C1=C3CCCC1
Strain/Indicator: TA100, Metabolic Activation: RAT, LIVER, S-9, 3-METHYLCHOLANTHRENE, Method: STANDARD PLATE
  mutagenic call: active; positive

## CCCCCC(N)=O
[5]
  mutagenic call: inactive; negative
[6]
  mutagenic call: inactive; negative
[7]
  mutagenic call: inactive; negative
[8]
  mutagenic call: inactive; negative
[4]
  mutagenic call: inactive; negative
[9]
  mutagenic call: inactive; negative
[10]
  mutagenic call: inactive; negative
[11]
  mutagenic call: inactive; negative
[12]
  mutagenic call: inactive; negative
Strain/Indicator: TA1537, Metabolic Activation: HAMSTER, LIVER, S-9, AROCLOR 1254 (10%), Method: PREINCUBATION
  mutagenic call: inactive; negative
[13]
  mutagenic call: inactive; negative
Strain/Indicator: TA1537, Metabolic Activation: RAT, LIVER, S-9, AROCLOR 1254 (10%), Method: PREINCUBATION
  mutagenic call: inactive; negative
